Measured values: patent US20110104121A1, “Female Reproductive Tract and Anal Prophylaxes” (priority 2008, published 2011)

B1: Lactobacillus-derived CV-N: HIV inhibitor Cyanovirin-N produced by engineered vaginal Lactobacillus (protein, UniProt P81180 1-101, looked up)
Cyanovirin-N: LGKFSQTCYNSAIQGSVLTSTCERTNGGYNTSSIDLNSVIENVDGSLKWQPSNFIETCRNTQLAGSSELAAECKTRAQQFVSTKINLDDHIANIDGTLKYE
modifications: produced in engineered Lactobacillus

Experiments:
[1] = test system: primary uterine epithelial cells; experiment: MIP3 alpha secretion by primary uterine epithelial cells, ELISA; assay type: cell-based, mice; settings: 20 hours, 37° C., vs media control
Experimental: FIG. 1 depicts levels of MIP3 alpha secretion by primary uterine epithelial cells at 20 hours after exposure to estrogen, ICI […] or the SERMs indicated. P value is comparison to media control.
Indeed, FIG. 1 summarizes the effects of estradiol (estrogen) and four known SERMS on the secretion of MIP3 alpha (aka CCL20), a known potent endogenous antimicrobial peptide, by primary uterine epithelial cells in culture. Epithelial cells were isolated from the uteri of intact mice by enzymatic digestion prior to incubation at 37° C. in the presence or absence of known SERMS for 20 hours. Following incubation in 96-well plates, media was collected and assayed by ELISA for MIP3 alpha.

vaginal cells = experiment: relative mRNA expression of SLPI and defensins in vaginal cells; assay type: cell-based; settings: for relative mRNA expression of beta defensin 1 in vaginal cells: saline control ~1.1×10^8; for relative vaginal alpha defensin 2 expression: saline control printed −7.5×10^4
Experimental: (§1) The analysis of SERM activity is carried out using fresh hysterectomy tissues, wherein epithelial cells, neutrophils, NK cells and macrophage/dendritic cells (MAC/DC), which are known to be responsive in culture to sex hormones, are recovered. Using conventional assays, SERMs (e.g., Tamoxifen, bazedoxifene acetate, lasofoxifene and raloxifene, etc) are analyzed for their ability to regulate immunological endpoints which have been identified as optimal for protection against HIV. […] Similarly, ICI 182,780 increased relative vaginal SLPI mRNA levels by 26-fold over saline controls. Furthermore, ICI 182,780, tamoxifen, and Y134 increased relative uterine alpha defensin 2 expression (˜3×10^5, ˜4×10^5, and −1.2×10^6, respectively) compared to ˜0.2×10^5 in the saline control. ICI 182,780, Y134, and PHTPP were also found to increase relative vaginal alpha defensin 2 expression (˜2.4×10^5, ˜4×10^5, and ˜1.6×10^5, respectively) compared to −7.5×10^4 in the saline control.

uterine cells = experiment: relative mRNA expression of SLPI and defensins in uterine cells; assay type: cell-based; settings: for relative uterine alpha defensin 2 expression: saline control ~0.2×10^5; for relative beta defensin 4 mRNA expression in uterine cells: saline control ~0.4×10^5
Experimental: as §1

[2] = test system: primary uterine epithelial cells; experiment: mouse KC (IL8) secretion from primary uterine epithelial cells; assay type: cell-based; settings: 24-hour treatment
female macrophages = experiment: LPS-induced TNFalpha secretion by female macrophages; assay type: cell-based
[3] = test system: uterine stromal fibroblasts; experiment: HGF secretion by uterine stromal fibroblasts, ELISA; assay type: cell-based, human
Experimental: (§2) Materials and Methods. FRT mucosal tissue was obtained following surgery from women who underwent hysterectomies. Tissues used in this study were distal to the sites of pathology and were determined to be unaffected by disease upon inspection by a trained pathologist. Tissues were transported from Pathology and procedures to isolate stromal fibroblasts began within 2 hours of surgery.
Tissues from the Fallopian tube, uterus, cervix, and ectocervix were dispersed into epithelial and stromal cell fractions by enzymatic digestion (Fahey, et al. (1998) Immunol. Invest. 27:167-180; Meter, et al. (2005) Fertil. Steril. 84:191-201). Briefly, tissues were minced under sterile conditions into 1-2 mm fragments and then digested at 37° C. for 1 hour using a “PHC” enzyme mixture that contained final concentrations of 3.4 mg/ml pancreatin (Gibco Life Technologies, Rockville, Md.), 0.1 mg/ml hyaluronidase (Worthington Biochemical Corporation, Freehold, N.J.), 1.6 mg/ml collagenase (Worthington) and 2 mg/ml D-glucose (Sigma, St Louis, Mo.) in Hank's balanced salt solution (Gibco, Invitrogen). This procedure was chosen to maximize digestion of the extracellular matrix, as verified by microscopy and by hematoxylin and eosin staining of frozen sections after digestion, while minimizing digestion of cell surface antigens as determined by flow cytometry. After incubating in this enzyme cocktail, cells and tissue fragments were collected, washed with complete media consisting of DMEM/F-12 without phenol red (Gibco) supplemented with 10% heat-inactivated fetal calf serum (Hyclone, Logan, Utah), 2 mM fresh L-glutamine, 25 mM HEPES, […] primocin (InvivoGen, San Diego, Calif.) and separated from tissue aggregates by sedimentation for 5 minutes. Medium containing predominantly single cells and small epithelial cell glands were removed and dispersed through a 250 μm nylon mesh screen (Small Parts, Miami Lake, Fla.). […]
(§3) Stromal cell fractions were washed, resuspended in complete media, and cultured in T75 flasks. […] When confluent, the cells in the flask were counted and sub-cultured into 24 well culture plates (Fisher Scientific, Pittsburgh, Pa.). […]
Once the cells reached confluence, they were cultured in complete media with 10% stripped FBS (Hyclone). […] In related experiments, when cell proliferation was analyzed, harvested from culture wells and counted by Coulter Counter. […] Viability of the cultures was determined using trypan blue dye exclusion and manual counting of live vs. dead cells on a hemocytometer. […]

[4] = test system: Monocytes-derived Dendritic cells (MDDCs); experiment: surface receptor expression on monocyte-derived dendritic cells, flow cytometry; assay type: cell-based, human
Experimental: Materials and Methods. Uterine epithelial cell line (ECC-1) was cultured according to established methods to establish cellular polarity with apical and basolateral compartments (Schaefer, et al. (2004) Immunology 112:428-436). The formation of tight junctions by the epithelial cell monolayer was routinely monitored by measurement of transepithelial resistance (TER) (Richardson, et al. (1995) Biol. Reprod. 53:488-498). […] The pooled media was centrifuged for 5 minutes at 10,000 g and stored at −80° C. for use in subsequent studies.
Peripheral blood mononuclear cells (PBMC) were obtained from residues of platelet pheresis according to known methods (Dietz, et al. (2006) Transfusion 46:2083-2089). Monocytes were subsequently enriched with Rosette Sep reagent (StemCell, Vancouver, BC). Blood specimens were from healthy adult males. Monocytes-derived Dendritic cells (MDDCs) were in vitro generated with GM-CSF (50 ng/ml) and IL-4 (50 ng/ml) (PeproTech Inc, Rocky Hill, N.J.) (Sallusto Lanzavecchia (1994) J. Exp. Med. 179:1109-1118). MDDCs were differentiated for 7 days in the presence or absence of 24-hour conditioned medium (1:1 dilution) obtained from ECC-1. In some experiments TGF-beta receptor 1 blocker, SB431542 (10 μM; Tocris Cookson, Inc., St. Louis, Mo.) (Eriksson, et al. (2006) Am. J. Reprod. Immunol. 56:321-328; Shen, et al. (2007) Clin. Exp. Immunol. 149(1):155-61) was simultaneously added with ECC-1 CM for the entire duration of the differentiation. As positive control for TGF-beta effects on MDDCs, experimental conditions were included in which MDDCs were differentiated with recombinant human TGF-beta1 at three different concentrations (0.1, 1 and 10 ng/mL) in the presence or absence of SB431542. Following 7 days of culture, cells were harvested, washed and subsequently used for flow cytometry analyses.
Following six days of in vitro differentiation, surface staining of MDDCs was performed with the following fluorochrome-labeled monoclonal antibodies: CD1a (HI149), CD14 (61D3), from Ebioscience (San Diego, Calif.); and CD163 (215927), CCR5 (45531), CXCR4 (12G5), DC-SIGN (120507) from R&D Systems (Minneapolis, Minn.). Matched isotype controls for the antibodies were used to control for non-specific binding. Following antibody staining, cells were washed with staining buffer and fixed with 2% methanol-free paraformaldehyde in 1×PBS (2% PFA), followed by analysis with a Becton Dickinson FACS CALIBUR (San Jose, Calif.). The acquired FACS data were analyzed by CELL QUEST (BD Biosciences).
Statistical analysis was performed using two-way analysis of variance (ANOVA) ([…] Prism Version 5.0; […] Software Inc., San Diego, Calif.). A value of P<0.05 was considered significant.

[5] = test system: cervix stromal fibroblasts; experiment: HGF secretion by cervix stromal fibroblasts, ELISA; assay type: cell-based, human; settings: estradiol
Experimental: as §2
(§4) Tissues from the Fallopian tube, uterus, cervix, and ectocervix were dispersed into epithelial and stromal cell fractions by enzymatic digestion (Fahey, et al. (1998) Immunol. Invest. 27:167-180; Meter, et al. (2005) Fertil. Steril. 84:191-201). […] This procedure was chosen to maximize digestion of the extracellular matrix, as verified by microscopy and by hematoxylin and eosin staining of frozen sections after digestion, while minimizing digestion of cell surface antigens as determined by flow cytometry. […]
as §3
(§5) Once the cells reached confluence, they were cultured in complete media with 10% stripped FBS (Hyclone). […] In related experiments, when cell proliferation was analyzed, harvested from culture wells and counted by Coulter Counter. […]

[6] = test system: ectocervix stromal fibroblasts; experiment: HGF secretion by ectocervix stromal fibroblasts, ELISA; assay type: cell-based, human; settings: estradiol
Experimental: as §2, §4, §3, §5

CCR5-tropic HIV = settings: in vitro; read-out: 50% inhibitory concentration, CCR5-tropic HIV infectivity; cited from earlier work
[7] = Table 4, control vehicle, N = 3
[8] = Table 5, control vehicle, N = 3

Row | Molecule | MIP3 alpha secretion [1] | relative mRNA expression of beta defensin 2 in vaginal cells (vaginal cells) | relative mRNA expression of beta defensin 1 in vaginal cells (vaginal cells) | increase in relative uterine SLPI mRNA levels over saline controls (uterine cells) | relative uterine alpha defensin 2 expression (uterine cells) | relative beta defensin 4 mRNA expression in uterine cells (uterine cells) | secretion of mouse KC (IL8) [2] | TNFalpha (% of Control) (female macrophages; [7]) | TNFalpha (% of Control) (female macrophages; [8]) | relative vaginal alpha defensin 2 expression (vaginal cells) | other results
1 | CC/C(=C(\c1ccccc1)c1ccc(OCCN(C)C)cc1)c1ccccc1 [tamoxifen] | marginal effect | not significantly affected | ~1.75×10^8 | ~2.5×10^5 | ~4×10^5 | ~6×10^5 | marginal effect | – | – | – | relative beta defensin 4 mRNA expression in vaginal cells (vaginal cells; saline control ~1×10^7): ~2.1×10^8
2 | C[C@]12CC[C@@H]3c4ccc(O)cc4CC[C@H]3[C@@H]1CC[C@@H]2O [E2, 17β-estradiol] | no effect | – | – | – | – | – | – | 73.96 ± 3.00 % of Control | 73.96 ± 3.00 % of Control | – | TNFalpha (% of Control) (female macrophages; E2 0.001 nM, control no E2, N = 4): 98.35 ± 3.19 % of Control; TNFalpha (% of Control) (female macrophages; E2 0.01 nM, control no E2, N = 4): 97.72 ± 6.89 % of Control; TNFalpha (% of Control) (female macrophages; E2 0.1 nM, control no E2, N = 4): 94.68 ± 11.62 % of Control; uterine stromal fibroblast HGF secretion ([3]; 10^−7 M or 10^−8 M estradiol, within 48 hours): significantly increased; estradiol response of HGF at 24 hours, responding patients ([3]; 24 hours after addition of estradiol): two out of five patients; cell numbers, control vs estradiol-treated wells ([3]; counted at 48-hour intervals): did not differ; HGF secretion, six days vs two days of exposure ([3]; estradiol 2, 4, 6 days, CM collected at 48 hour intervals): three times more HGF; DC-SIGN expression on immature DCs [4]: increases; HGF secretion by cervix stromal fibroblasts [5]: did not increase; secretion of HGF from ectocervix stromal fibroblasts [6]: no effect
3 | C[C@]12CC[C@@H]3c4ccc(O)cc4C[C@@H](CCCCCCCCC[S+]([O-])CCCC(F)(F)C(F)(F)F)[C@H]3[C@@H]1CC[C@@H]2O (stereo partly shown) [ICI 182,780] | significantly increased | not significantly affected | ~2.15×10^8 | ~3×10^5 | ~3×10^5 | – | significantly increased | 111.87 ± 15.68 % of Control | – | ~2.4×10^5 | increase in relative vaginal SLPI mRNA levels over saline controls (vaginal cells): 26 fold
4 | Oc1ccc(-c2c(-c3ccccc3)nn3c(C(F)(F)F)cc(C(F)(F)F)nc23)cc1 [PHTPP] | marginal effect | not significantly affected | – | ~8×10^5 | – | ~8×10^5 | marginal effect | – | 79.96 ± 6.43 % of Control | ~1.6×10^5 | relative mRNA expression of beta defensin 2 in uterine cells (uterine cells; saline control ~1×10^5): ~1.55×10^8; relative mRNA expression of beta defensin 1 in uterine cells (uterine cells; saline control ~1.1×10^6): ~1.05×10^8
5 | B1 | – | – | – | – | – | – | – | – | – | – | IC50 (CCR5-tropic HIV): 0.3 nM
